# PubChem BioAssay AID1963422 (Molecular Pharmacology Branch, DTP, NCI, 2024)
# Values joined by “and” are separate entries in the source; they are usually repeats but may differ in a detail not shown here. Equal values may be shown once.
# Test system: 463943-066-T-J2-PDC complex spheroid growth
# Experiment: Anticancer human tumor 463943-066-T-J2-PDC patient-derived colon adenocarcinoma cell line growth inhibition [Asc]
# Conditions: for viability, T/C: stronger effect = lower value
# In short: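 Complex spheroids combining tumor cells with HUVEC endothelial cells and human MSCs, at 37 degrees C, 5% CO2; agents tested alone or combined, half-log dilutions from at or near clinical Cmax, or 10 microM if Cmax unknown.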
# 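Further: compound exposure lasted 7 days.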
# 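Wherever viability, T/C is given: 100% = DMSO vehicle control wells.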
smiles,measurement,setting,value
Cc1nc(N2CCC3(CC2)COC(C)C3N)c(CO)nc1Sc1ccnc(N)c1Cl (centres undefined),"viability, T/C",compound 0.00949 µM,97.7% and 107% (2×)
same,"viability, T/C",compound 0.03 µM,88.5% and 90.2% and 90.5%
same,"viability, T/C",compound 0.0949 µM,86.5% and 88.5% and 79.4%
same,"viability, T/C",compound 0.3 µM,87.4% and 87% and 82%
same,"viability, T/C",compound 0.949 µM,87% and 81.9% and 80.6%
same,"viability, T/C",compound 3 µM,70.8% (2×) and 71.8%
same,IC50,curve of compound,> 3000 nM
NC(=O)C(=Cn1cnc(-c2cc(C(F)(F)F)cc(C(F)(F)F)c2)n1)c1cncnc1 + CCN1C(C(=O)NC23CCC(C(=O)O)(CC2)CC3)C(c2cccc(Cl)c2F)C2(C(=O)Nc3cc(Cl)ccc32)C12CCCCC2,IC50,"curve of first compound, second compound 0.00949 µM",> 300 nM
same,IC50,"curve of first compound, second compound 0.03 µM",> 300 nM
same,IC50,"curve of first compound, second compound 0.0949 µM",> 300 nM
same,IC50,"curve of first compound, second compound 0.3 µM",156 nM
same,IC50,"curve of first compound, second compound 0.949 µM",32.6 nM
same,IC50,"curve of first compound, second compound 3 µM",15.1 nM
same,"viability, T/C","second compound 0.00949 µM, first compound 0.000949 µM",94.2%
same,"viability, T/C","second compound 0.00949 µM, first compound 0.003 µM",91.3%
same,"viability, T/C","second compound 0.00949 µM, first compound 0.00949 µM",82.5%
same,"viability, T/C","second compound 0.00949 µM, first compound 0.03 µM",87.4%
same,"viability, T/C","second compound 0.00949 µM, first compound 0.0949 µM",81%
same,"viability, T/C","second compound 0.00949 µM, first compound 0.3 µM",63.7%
same,"viability, T/C","second compound 0.03 µM, first compound 0.000949 µM",99.5%
same,"viability, T/C","second compound 0.03 µM, first compound 0.003 µM",92.6%
same,"viability, T/C","second compound 0.03 µM, first compound 0.00949 µM",81%
same,"viability, T/C","second compound 0.03 µM, first compound 0.03 µM",84.9%
same,"viability, T/C","second compound 0.03 µM, first compound 0.0949 µM",78.8%
same,"viability, T/C","second compound 0.03 µM, first compound 0.3 µM",62.5%
same,"viability, T/C","second compound 0.0949 µM, first compound 0.000949 µM",86.8%
same,"viability, T/C","second compound 0.0949 µM, first compound 0.003 µM",84.9%
same,"viability, T/C","second compound 0.0949 µM, first compound 0.00949 µM",80.7%
same,"viability, T/C","second compound 0.0949 µM, first compound 0.03 µM",78.6%
same,"viability, T/C","second compound 0.0949 µM, first compound 0.0949 µM",70.6%
same,"viability, T/C","second compound 0.0949 µM, first compound 0.3 µM",54.5%
same,"viability, T/C","second compound 0.3 µM, first compound 0.000949 µM",78.7%
same,"viability, T/C","second compound 0.3 µM, first compound 0.003 µM",75.4%
same,"viability, T/C","second compound 0.3 µM, first compound 0.00949 µM",68.7%
same,"viability, T/C","second compound 0.3 µM, first compound 0.03 µM",67.5%
same,"viability, T/C","second compound 0.3 µM, first compound 0.0949 µM",51.2%
same,"viability, T/C","second compound 0.3 µM, first compound 0.3 µM",44.5%
same,"viability, T/C","second compound 0.949 µM, first compound 0.000949 µM",68.1%
same,"viability, T/C","second compound 0.949 µM, first compound 0.003 µM",67.3%
same,"viability, T/C","second compound 0.949 µM, first compound 0.00949 µM",61%
same,"viability, T/C","second compound 0.949 µM, first compound 0.03 µM",52.1%
same,"viability, T/C","second compound 0.949 µM, first compound 0.0949 µM",37.8%
same,"viability, T/C","second compound 0.949 µM, first compound 0.3 µM",34.8%
same,"viability, T/C","second compound 3 µM, first compound 0.000949 µM",66%
same,"viability, T/C","second compound 3 µM, first compound 0.003 µM",63.6%
same,"viability, T/C","second compound 3 µM, first compound 0.00949 µM",56.9%
same,"viability, T/C","second compound 3 µM, first compound 0.03 µM",40%
same,"viability, T/C","second compound 3 µM, first compound 0.0949 µM",30.4%
same,"viability, T/C","second compound 3 µM, first compound 0.3 µM",29%
